# According to patent EP3354264A1, “PROPHYLAXIS AND TREATMENT OF NEISSERIA GONORRHOEAE EYE INFECTION” (Kingston University Higher Education Corporation, priority 2017, dated 2018):
# Where “and” joins values, the source holds several entries; their conditions need not be identical. Equal entries are not always repeated. Where two headings read alike, the source gives them in different places.
# Experiments:
# [1] = system: Neisseria gonorrhoeae strain NCCP11945; experiment: Growth inhibition screen of organic acids; assay type: cell-based; settings: strain NCCP11945, in vitro, 1 mM
# Method: (§1) The well characterised N. gonorrhoeae strain NCCP11945 (Chung GT et al. (2008) Complete genome sequence of Neisseria gonorrhoeae NCCP11945. Journal of Bacteriology 190: 6035-6036) was used in the screening stage of this experiment. Eight isolates that were obtained from Public Health England from various European locations were used in the log reduction assays. All isolates were first cultured for 24 hours prior to testing by plating on GC solid medium (Oxoid Limited, Hampshire, UK) with Kellogg supplements and incubating at 37 °C, 5% CO2 (Kellogg DS, Jr., et al., (1963), J Bacteriol 85: 1274-1279).
# (§2) A full list of all the organic acids tested in this study is in Table 1. The tested compounds include saturated and unsaturated fatty acids, monoglycerides, dicarboxylic acids, and fatty acid sodium salts. All compounds investigated were resuspended at a concentration of 100 mM in ethanol unless stated. All chemicals were obtained from Sigma-Aldrich (Poole, Dorset, UK).
# Other organic acids were also active at this concentration, as noted in Table 1.
# [2] = system: Neisseria gonorrhoeae strain NCCP11945; experiment: Measurement of bactericidal action (log reduction); assay type: cell-based; settings: for log reduction at 1000 µM: Neisseria gonorrhoeae
# Method: as §1, §2
# (§3) Log reductions were done using the same method as in Bergsson et al., (1999), Antimicrob Agents Chemother 43: 2790-2792. Briefly, cells were suspended in GC broth (18 g/L GC Base (Oxiod, Limited) with added defined supplements) to an optical density of 0.3 at 520 nm which is approximately equivalent to 107 - 108 cells per millilitre (Macfarlane DE et al. (1980) Improved media for the culture of Neisseria gonorrhoeae. J Med Microbiol 13: 597-607). Five hundred microliters of the suspension was then added to 5 µl of the 100 mM stocks to give a final concentration of 1 mM. A negative control was also done to calculate the reduction in bacterial titre by adding 500 µl to 5 µl ethanol. The tubes were then mixed at room temperature for two minutes and immediately diluted in a 10 fold dilution series down to 10-4. The dilutions were plated by spreading 10 µl on a quarter of a plate and 100 µl of the neat solution was also plated. Plates were incubated at 37 °C for 48 hours. All samples were plated in duplicate. A reduction in viable cell count by more than 4 log10 was deemed to be bactericidal and was selected for further investigation. Bactericidal compounds were then tested at concentrations of 0.75, 0.5, and 0.25 mM (0.125 mM was also used in some potent compounds) to find the minimum bactericidal concentration. Additional testing at lower concentrations was also done on the eight clinical isolates of European origin.
# [3] = system: panel of nine N. gonorrhoeae isolates (strain NCCP11945 and eight isolates from Public Health England); experiment: Minimum bactericidal concentration by log reduction, panel of isolates; assay type: cell-based; settings: Neisseria gonorrhoeae, 2 min, read-out: Minimum bactericidal concentration
# Method: as §1, §3
# As shown by the results in Table 3 which presents data on the log reductions of bacterial cell counts, against a panel of nine N. gonorrhoeae isolates (strain NCCP11945 and eight isolates from Public Health England), myristoleic acid (C14:1cΔ9), palmitoleic acid (C16:1cΔ9), linolenic acid (C18:3cΔ9,12,15), and monocaprin (C10) have a minimal bactericidal concentration, defined as the lowest concentration tested to give an average 4 log10 reduction in bacterial count after a two minute exposure, of 0.5 mM. Against a panel of nine N. gonorrhoeae isolates, lauric acid (C12:0), tridecanoic acid (C13:0), and sodium dodecanoate have a minimal bactericidal concentration of 0.75 mM.
# [4] = system: Neisseria gonorrhoeae strain NCCP11945; experiment: Log reduction in artificial tear fluid; assay type: cell-based; settings: two minute exposure
# Method: Artificial tear fluid was made as in Mirejovsky et al., Optometry and Vision Science, (1991), 68: 858-864. […] Neisseria gonorrhoeae strain NCCP11945 was used in these experiments. As the previous log reductions, […] were suspended in GC broth. The cell suspension was centrifuged to remove the culture medium and the bacteria resuspended in the tear fluid. This was then added to the concentrated organic acid candidates. The cells were then counted again after two minute exposure to estimate any reduction due to the exposure to the fatty acid.
# In a first experiment, the artificial tear fluid formulation includes calcium chloride to mimic the calcium in natural tears. As shown by the results in Figure 8, the anti-gonococcal properties of myristoleic acid (C14:1cΔ9), palmitoleic acid (C16:1cΔ9), linolenic acid (C18:3cΔ9,12,15), and monocaprin(C10) are retained in the artificial tear fluid formulation containing calcium chloride.
# In a second experiment, calcium chloride was omitted from the artificial tear fluid formulation. The results in Figure 9 indicate that the anti-gonococcal properties of lauric acid (C12:0), tridecanoic acid (C13:0), and sodium dodecanoate were retained in the artificial tear fluid formulation without.
# in vitro = assay type: cell-based, bovine; settings: red blood cells
# Method: (§4) Whole bovine blood was obtained from a local slaughter house (ABP, Guildford, Surrey, UK), adding 90 ml blood to 10 ml of 110 mM tri-sodium citrate anticoagulant. RBCs were isolated the same day. The RBCs were washed by three repeats of centrifugation (1,500 x g for 10 minutes) and resuspension in PBSG. Testing was done following European Union Reference Laboratory for alternatives to animal testing (EURL-ECVAM) guidelines (Lewis RW (2010) DB-ALM Protocol No. 99: Red blood cell (RBC) Test System. EURL ECVAM). The organic acids were made up in DMSO and diluted to a DMSO concentration maximum of 10 % (v/v). Samples were shaken at room temperature for 1 hour and then centrifuged at 10,000 rpm for 2 minutes. An aliquot of 750 µl of the supernatant was taken and absorbance at […] tested.
# RBCs = experiment: in vitro; assay type: cell-based, bovine
# Method: as §4
# [5] = NCCP11945, 2 min, read-out: Log reduction of Neisseria gonorrhoeae, strain NCCP11945, 1 mM, 2 minutes
# [6] = 2 min, strain NCCP11945, 1 mM, 2 minutes, read-out: Log reduction of Neisseria gonorrhoeae
# [7] = strain NCCP11945, 1 mM, 2 minutes
# [8] = lowest concentration tested giving an average 4 log10 reduction after two minute exposure, nine isolates
# [9] = artificial tear fluid containing calcium chloride, Figure 8
# [10] = bovine RBCs, shaken 1 hour at room temperature, read-out: H50
# [11] = bovine RBCs, shaken 1 hour at room temperature, read-out: H50 (mg/L)
Structure (SMILES),Inhibits growth of Neisseria gonorrhoeae [1],further results
"CCCCCCCCCCCCCCCC(=O)O [Palmitic acid 16:0, Palmitic acid]",No,–
"CCCCCCCC(=O)O [Caprylic/Octanoic acid 8:0, Octanoic acid]",No,–
"CCCCCCCC/C=C\CCCCCCCCCCCC(=O)O [Erucic acid 22:1 cΔ13, Erucic acid]",Yes,"log reduction at 1000 µM [2, 5]: 0"
CCCCCC[C@@H](O)C/C=C\CCCCCCCC(=O)O [Ricinoleic acid],Yes,"log reduction at 1000 µM [2, 6]: 3.5"
"CCCCCCCC/C=C/CCCCCCCC(=O)O [Elaidic acid 18:1 tΔ9, Elaidic acid]",Yes,"log reduction at 1000 µM [2, 6]: 0.5"
CCCCCCCCCCCCCC(=O)OC(C)C [Isopropyl myristate],No,–
CCCCCCCCCCCC(=O)[O-].[Na+] [Sodium dodecanoate],Yes,"MBC [3]: 750 µM; Inhibits growth of Neisseria gonorrhoeae ([1]; listed as sodium dodecanoate): able to inhibit growth; anti-gonococcal properties in artificial tear fluid ([4]; artificial tear fluid without calcium chloride, Figure 9): retained; log reduction at 1000 µM [2, 5]: > 6; Log reduction of Neisseria gonorrhoeae [2, 7]: able to cause a log reduction; HC50 at 1 h (in vitro; bovine): 200 µg/mL to 400 µg/mL and 900 µM to 1.8 mM; RBC lysis assay prediction of irritation (RBCs): not irritating"
"CCCCCC/C=C\CCCCCCCCCC(=O)O [Cis-Vaccenic acid 18:1 cAll, Cis-Vaccenic acid]",No,–
"C/C=C/C=C/C(=O)O [Sorbic acid 6:2 tΔ2,4, Sorbic acid]",No,–
CCCCCCCCCCCCCCCC(=O)OC(C)C [Isopropyl palmitate],No,–
"CC/C=C\C/C=C\C/C=C\CCCCCCCC(=O)O [Linolenic acid 18:3 cΔ9,12,15, α-linolenic acid]",Yes,"MBC [3, 8]: 500 µM; Inhibits growth of Neisseria gonorrhoeae ([1]; listed as linolenic acid): able to inhibit growth; anti-gonococcal properties in artificial tear fluid [4, 9]: retained; log reduction at 1000 µM [2, 6]: > 6; Log reduction of Neisseria gonorrhoeae [2, 7]: able to cause a log reduction; HC50 at 1 h (in vitro; [10]): 70 to 140 µM; HC50 at 1 h (in vitro; [11]): 20 to 40 mg/L"
O=C(O)CCCCC(=O)O [Adipic acid],No,–
"CCCCC/C=C\C/C=C\CCCCCCCC(=O)O [Linoleic acid 18:2 cΔ9,12, Linoleic acid]",Yes,"log reduction at 1000 µM [2, 6]: 1.6"
"CCCCCCCCCCCCCC(=O)OCC(O)CO (stereo not shown) [Monomyristin C14, Monomyristin]",Yes,"log reduction at 1000 µM [2, 5]: 0.6"
"CCCCCCCCCCCCCCCCCC(=O)O [Stearic acid 18:0, Stearic acid]",No,–
CCCCCCCCCCCCCC(=O)[O-].[Na+] [Sodium myristate],Yes,"Log reduction of Neisseria gonorrhoeae [2, 7]: 0.5"

Structure (SMILES),Inhibits growth of Neisseria gonorrhoeae [1],further results
O=C(O)CCCCCCC(=O)O [Suberic acid],No,–
"CCCCCC/C=C\CCCCCCCC(=O)O [Palmitoleic acid 16:1 cΔ9, (9Z)-hexadec-9-enoic acid]",Yes,"MBC [3, 8]: 500 µM; Inhibits growth of Neisseria gonorrhoeae ([1]; listed as palmitoleic acid): able to inhibit growth; anti-gonococcal properties in artificial tear fluid [4, 9]: retained; log reduction at 1000 µM [2, 6]: > 6; Log reduction of Neisseria gonorrhoeae [2, 7]: able to cause a log reduction; HC50 at 1 h (in vitro; [10]): 80 to 160 µM; HC50 at 1 h (in vitro; [11]): 20 to 40 mg/L"
O=C(O)CCC(=O)O [Succinic acid],No,–
"CCCCCCCC(=O)OCC(O)CO (racemic) [1-Octanoyl-rac-Glycerol C8, 1-Octanoyl-rac-Glycerol]",Yes,–
O=C(O)CCCCCCCC(=O)O [Azelaic acid],No,–
"CCCCCCCCCCCC(=O)OCC(O)CO (stereo not shown) [Monolaurin C12, Monolaurin]",Yes,"log reduction at 1000 µM [2, 5]: 3.4"
"CCCCC/C=C\C/C=C\C/C=C\C/C=C\CCCC(=O)O [Arachidonic acid 20:4 cΔ5,8,11,14, Arachidonic acid]",Yes,–
"CCCCCCCC/C=C\CCCCCCCC(=O)O [Oleic acid 18:1 cΔ9, Oleic acid]",Yes,"log reduction at 1000 µM [2, 6]: 1"
"CCCCCCCCCCCCCCC(=O)O [Pentadecylic acid 15:0, Pentadecylic acid]",Yes,"log reduction at 1000 µM [2, 6]: 0.5"
"CCCCCC/C=C/CCCCCCCCCC(=O)O [trans-Vaccenic acid 18:1 tΔ11, trans-Vaccenic acid]",No,–
"CCCCCCCCCC(=O)O [Capric acid/Decanoic acid 10:0, Decanoic acid]",No,–
"CCCCCCCCCCC(=O)O [Undecanoic acid 11:0, Undecanoic acid]",Yes,"log reduction at 1000 µM [2, 6]: 0.2"
"CCCCCCCCCCCCCCCCC(=O)O [Heptadecylic acid 17:0, Heptadecylic acid]",No,–
"CCCCCCCCCCCCCC(=O)O [Myristic acid 14:0, Myristic acid]",Yes,"Log reduction of Neisseria gonorrhoeae [2, 7]: 1.5"
O=C(O)CCCCCCCCC(=O)O [Sebacic acid],No,–
O=C(O)CCCCCC(=O)O [Pimelic acid],No,–
